Test results from ChEMBL document CHEMBL5352394, “Development of fluorizoline analogues as prohibitin ligands that modulate C-RAF signaling, p21 expression and melanogenesis” (Eur J Med Chem, 2022).
The source made the active and inactive calls. The calls are words filed in the database; no cut-off is given here.

How the values were obtained:
[1] = target: RAF proto-oncogene serine/threonine-protein kinase (Homo sapiens) (UniProt P04049); assay: Inhibition of C-RAF phosphorylation at Ser 338 residue in human HeLa cells at 10 uM preincubated with compound for 1 hr and followed by EGF stimulation for 30 mins by Western blot analysis; format: cell-based
[2] = target: Dual specificity mitogen-activated protein kinase kinase 1 (Homo sapiens) (UniProt Q02750); assay: Inhibition of MEK1 phosphorylation in human HeLa cells at 10 uM preincubated for 1 hr and followed by EGF stimulation for 30 mins by Western blot analysis; format: cell-based
HBL = assay: Induction of pigmentation in human HBL cells assessed as melanogenesis at 0.1 to 10 uM by microscopic analysis; format: functional, cell-based; conditions: dose 0.1-10 µM
MCF7 [3] = assay: Antiproliferative activity against human MCF7 cells assessed as reduction in cell viability at 1 uM incubated for 72 hrs by trypan blue exclusion assay; format: functional, cell-based
MCF7 [4] = assay: Upregulation of p21 expression in human MCF7 cells at 1 uM incubated for 72 hrs by Western blot analysis; format: functional, cell-based
MCF7 [5] = assay: Antiproliferative activity against human MCF7 cells transfected with p21 siRNA assessed as reduction in cell viability at 1 uM incubated for 48 hrs by tryphan blue dye exclusion analysis; format: functional, cell-based
HeLa = assay: Cytotoxicity against human HeLa cells assessed as reduction in cell viability measured after 24 hrs by MTT assay; format: functional, cell-based; conditions: dose 1.25-10 µM

Chain of Dual specificity mitogen-activated protein kinase kinase 1 (Homo sapiens) (Q02750 whole entry): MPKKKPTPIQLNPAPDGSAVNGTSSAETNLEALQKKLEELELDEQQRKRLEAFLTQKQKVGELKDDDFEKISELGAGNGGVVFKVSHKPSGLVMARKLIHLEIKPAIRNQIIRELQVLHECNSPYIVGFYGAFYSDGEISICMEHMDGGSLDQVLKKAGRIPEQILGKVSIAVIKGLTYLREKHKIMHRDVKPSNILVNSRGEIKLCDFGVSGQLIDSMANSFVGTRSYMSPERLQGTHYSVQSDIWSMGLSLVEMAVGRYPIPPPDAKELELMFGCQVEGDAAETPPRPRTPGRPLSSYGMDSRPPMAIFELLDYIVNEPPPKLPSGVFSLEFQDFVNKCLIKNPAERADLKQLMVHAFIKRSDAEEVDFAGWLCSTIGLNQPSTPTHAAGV
Chain of RAF proto-oncogene serine/threonine-protein kinase (Homo sapiens) (P04049 whole entry): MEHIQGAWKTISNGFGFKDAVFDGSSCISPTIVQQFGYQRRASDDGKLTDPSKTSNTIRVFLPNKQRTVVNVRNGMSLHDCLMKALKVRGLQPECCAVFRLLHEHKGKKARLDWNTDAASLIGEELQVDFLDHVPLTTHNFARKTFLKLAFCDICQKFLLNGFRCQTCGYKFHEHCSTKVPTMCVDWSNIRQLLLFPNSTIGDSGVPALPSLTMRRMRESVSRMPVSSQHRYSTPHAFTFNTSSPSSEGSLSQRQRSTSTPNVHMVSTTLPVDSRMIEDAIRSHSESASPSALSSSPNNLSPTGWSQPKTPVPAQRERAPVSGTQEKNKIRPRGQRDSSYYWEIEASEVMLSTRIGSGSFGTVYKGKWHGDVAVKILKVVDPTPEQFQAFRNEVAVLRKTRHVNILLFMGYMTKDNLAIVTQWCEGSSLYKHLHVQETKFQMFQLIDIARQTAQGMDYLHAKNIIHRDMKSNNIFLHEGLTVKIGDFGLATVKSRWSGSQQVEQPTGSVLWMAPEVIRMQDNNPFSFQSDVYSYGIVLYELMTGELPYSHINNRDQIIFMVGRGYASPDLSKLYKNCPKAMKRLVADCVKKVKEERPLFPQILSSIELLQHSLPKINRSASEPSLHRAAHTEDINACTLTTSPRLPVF

Row | Structure (SMILES) | inhibition [1] | inhibition [2] | Activity (HBL) | Activity (MCF7 [3]) | Activity (MCF7 [4]) | Activity (MCF7 [5]) | Activity (HeLa)
1 | CC1(F)N=C(c2ccc(Cl)cc2)SC1(F)c1ccc(Cl)cc1 (stereo not drawn) | inactive | Active |  |  |  |  | 
2 | FC1(F)N=C(c2ccccn2)SC1(F)c1ccc(Cl)cc1 (stereo not drawn) | Active | Active | Active |  |  |  | 
3 | FC1(F)N=C(c2cnccn2)SC1(F)c1ccc(Cl)cc1 (stereo not drawn) | inactive | inactive | Active | Active | Active | inactive | 
4 | FC1(F)N=C(c2ccccn2)SC1(F)c1ccccc1 (stereo not drawn) | Active |  | Active |  |  |  | 
5 | FC1(F)N=C(c2ccc(Cl)cn2)SC1(F)c1ccc(Cl)cc1 (stereo not drawn) | Active | inactive | Active |  |  |  | Dose-Dependent Effect
6 | O=C(c1ccccc1)c1ccc(C2=NC(F)(F)C(F)(c3ccc(Cl)cc3)S2)cc1 (stereo not drawn) | Active |  | Active |  |  |  | 
7 | FC1(F)N=C(c2ccc(Cl)cc2)SC1(F)c1ccc(Cl)cc1 (stereo not drawn) |  |  | Active |  |  |  | Dose-Dependent Effect
8 | Cc1ccc(C2(F)SC(c3ccc(Cl)cc3)=NC2(F)F)cc1 (stereo not drawn) | Active | Active | Active |  |  |  | Dose-Dependent Effect
9 | FC1(F)SC(c2ccc(Cl)cc2)=NC1(F)c1ccc(Cl)cc1 (stereo not drawn) | inactive | inactive | Active | inactive | inactive |  | 
10 | FC1(F)N=C(c2ncccn2)SC1(F)c1ccc(Cl)cc1 (stereo not drawn) | Active | Active | Active |  |  |  | 
11 | Cc1ccc(C2(F)SC(c3ccccc3)=NC2(F)F)cc1 (stereo not drawn) | inactive | inactive | Active |  |  | inactive | Dose-Dependent Effect
12 | FC1(F)N=C(c2ccc(Br)cc2)SC1(F)c1ccc(Cl)cc1 (stereo not drawn) | Active |  | Active | Active | Active |  | Dose-Dependent Effect
